Source: US20130017540A1, “IDENTIFICATION OF MUTATION TYPES ASSOCIATED WITH ACQUIRED RESISTANCE AND METHODS FOR USING SAME” (priority 2011, published 2013)

System: KCL-22 cells
Experiment: Soft agar colony formation assay with imatinib
Type: cell-based
Conditions: 2.5 μM imatinib, one million KCL-22 cells per well, 3 weeks
Procedure: One million KCL-22 cells were seeded per well in triplicate and incubated for 3 weeks. Plates were then stained with 0.005% Crystal Violet for 1 hour, and colonies were scored by microscope.

## Cc1ccc(NC(=O)c2ccc(CN3CCN(C)CC3)cc2)cc1Nc1nccc(-c2cccnc2)n1 [imatinib]
  T315I mutation rate on soft agar, μ: 2.40 × 10^−4 T315I mutations incurred per BCR-ABL fusion gene
Listed as Imatinib
  T315I mutation rate on soft agar, μ: 2.40 × 10^−4 ± 2.89 × 10^−5 T315I mutations incurred per BCR-ABL fusion gene
